Patent US10869924B2, “PD-L1 antagonist combination treatments” (MERCK PATENT GMBH, priority 2015, dated 2020)

Legend:
MC38 colon carcinoma = assay: Subcutaneous MC38 colon carcinoma model, avelumab, anti-4-1BB and anti-M-CSF (Example 5); assay type: in vivo, mouse; conditions: anti-4-1BB 1 mg/kg, anti-M-CSF 15 mg/kg, Avelumab 10 mg/kg, ip, 3 doses 3 to 4 days apart, C57BL/6 mice
Method: (§1) Six (6)- to 8-week old female C57BL/6 mice were purchased from the Jackson Laboratories. All animals were housed in a pathogen free vivarium facility at Rinat and experiments were conducted according to the protocols in accordance with the Institutional Animal Care and Use Committee (IACUC) guidelines.
The MC38 colon carcinoma cell line was kindly provided by Dr. Antoni Ribas at University of California, Los Angeles, Calif. Cells were cultured in Dulbecco's Modified Eagle's Medium (DMEM) supplemented with 10% fetal bovine serum (FBS), 2 mM L glutamine at 37° C. in 5% carbon dioxide (CO2), and IMPACT-tested for pathogens at Research Animal Diagnostic Laboratory (RADIL) (Columbia, Mo.). Pathogen-free cells growing in an exponential growth phase were harvested and used for tumor inoculation.
Therapeutic mouse anti-mouse 4-1BB mAb (mouse immunoglobulin G1 [mIgG1]), derived from the parental clone MAB9371 (R&D Systems), was prepared in-house. Avelumab was provided by Merck Serono. Rat anti-mouse M-CSF (clone 5A1), rat IgG1 (clone HRPN) and mIgG1 (clone: MOPC-21) isotype controls were purchased from BioXcell. Human IgG1 isotype was prepared in-house. Anti-4-1BB, avelumab and anti-M-CSF mAbs were diluted to concentrations of 0.1 mg/mL and 1 mg/mL, and 1.5 mg/mL, respectively, in phosphate buffered saline (PBS) (Life Technologies), and dosed at 0.2 mL per mouse intraperitoneally (ip) for 3 doses 3 to 4 days apart.
C57BL/6 mice were inoculated subcutaneously at the right flank with 0.5-1×10^6 MC38 cells in 0.1 mL of DMEM. When tumors reached an average of ˜60 mm^3 (range 41-93 mm^3), mice were randomized into groups of 10 animals per group, and treatment was started at the same day. Tumor size was measured in two dimensions using a caliper, and the volume was expressed in mm^3 using the formula: V=0.5 L×W^2 where L and W are the long and short diameters of the tumor, respectively. Body weight was recorded weekly.
Results were expressed as mean±SEM (Table 8). Statistical analyses were performed using GraphPad Prism 6.0. One-way or two-way ANOVA was applied to compare the statistical differences among multiple groups relative to isotype controls. P<0.05 was considered as significant difference.

B16F10 melanoma = assay: Subcutaneous B16F10 melanoma model, avelumab, anti-4-1BB and anti-OX40 (Example 6); assay type: in vivo, mouse; conditions: anti-OX40 3 mg/kg, anti-4-1BB 1 mg/kg, avelumab 20 mg/kg, ip, 3 doses 3 to 4 days apart, C57BL/6 mice
Method: as §1, with “Two murine models were used to evaluate the therapeutic efficacy of combinatorial treatment of anti-OX40 antibody, anti-4-1 BB and Avelumab. Six” for “Six”, “C57BL/6 mice or Balb/C” for “C57BL/6”
The B16F10 melanoma cell line was purchased from American Type Culture Collection (ATCC). The MC38 colon carcinoma cell line was kindly provided by Dr. Antoni Ribas at University of California, Los Angeles, Calif. Cells were cultured in Dulbecco's Modified Eagle's Medium (DMEM) supplemented with 10% fetal bovine serum (FBS), 2 mM L-glutamine at 37° C. in 5% carbon dioxide (CO2). Cells growing in an exponential growth phase were harvested and used for tumor inoculation.
Therapeutic mouse anti-OX40 antibodies with either the mIgG1 or the mIgG2a isotype (anti-OX40 mIgG1 and anti-OX40 mIgG2a, respectively) were derived from parental clone OX86 in house. Therapeutic mouse anti-mouse 4-1BB antibody (mouse immunoglobulin G1 [mIgG1]), derived from the parental clone MAB9371 (R&D Systems), was prepared in-house. Avelumab was provided by Merck Serono. Isotype control mIgG1 (clone: MOPC-21) and mIgG2a (C1.18.4) was purchased from BioXcell. Human IgG1 was prepared in-house. Anti-OX40 antibody, anti-4-1BB antibody, and avelumab were dosed at 3 mg/kg, 1 mg/kg and 20 mg/kg in the B16F10 model and 1 mg/kg, 1 mg/kg and 10 mg/kg in the MC38 model, respectively, in phosphate buffered saline (PBS) (Life Technologies), and dosed at 0.2 mL per mouse intraperitoneally (ip) for 3 doses 3 to 4 days apart.
C57BL/6 mice were inoculated subcutaneously at the right flank with 0.3×10^6 B16F10 cells in 0.1 mL of PBS. Balb/C mice were inoculated subcutaneously at the right flank with 0.5×10^6 MC38 cells in 0.1 mL of PBS. When tumors reached target size, mice were randomized into treatment groups. Treatment was started on the same day as randomization. Tumor size was measured twice weekly in 2 dimensions using a caliper, and the volume was calculated in cubic millimeters using the formula: V=0.5 L×W^2 where L is the longest diameter of the tumor and W is the diameter perpendicular to L. Body weight was recorded weekly.
Results are summarized in Table 9 (B16F10 melanoma) and Table 10 (MC38 colon carcinoma) below (mean tumor size±SEM). Statistical analyses were performed using GraphPad Prism 6.0. 2-way ANOVA was applied to compare the statistical differences among multiple groups relative to the isotype control or other treatment groups. P<0.05 was considered as significant difference. Tumor measurements are in mm^3.

Substance: Avelumab: fully human mAb of the IgG1 isotype that specifically targets and blocks PD-L1
- Mean Tumor Size (MC38 colon carcinoma; Day 7 post-tumor inoculation (start of treatment)): 63 mm^3
- Mean Tumor Size (MC38 colon carcinoma; Day 10 post-tumor inoculation): 127 mm^3
- Mean Tumor Size (MC38 colon carcinoma; Day 14 post-tumor inoculation): 254 mm^3
- Mean Tumor Size (MC38 colon carcinoma; Day 16 post-tumor inoculation): 384 mm^3
- Mean Tumor Size (MC38 colon carcinoma; Day 18 post-tumor inoculation): 523 mm^3
- Mean Tumor Size (MC38 colon carcinoma; Day 21 post-tumor inoculation): 714 mm^3
- Mean Tumor Size (MC38 colon carcinoma; Day 23 post-tumor inoculation): 901 mm^3
- Mean Tumor Size (B16F10 melanoma; Day 12 post-tumor inoculation (start of treatment)): 77 mm^3
- Mean Tumor Size (B16F10 melanoma; Day 15 post-tumor inoculation): 236 mm^3
- Mean Tumor Size (B16F10 melanoma; Day 18 post-tumor inoculation): 396 mm^3
- Mean Tumor Size (B16F10 melanoma; Day 22 post-tumor inoculation): 750 mm^3
- Mean Tumor Size (B16F10 melanoma; Day 25 post-tumor inoculation): 1291 mm^3
- Mean Tumor Size (B16F10 melanoma; Day 29 post-tumor inoculation): 2159 mm^3
- Mean Tumor Size (B16F10 melanoma; Day 32 post-tumor inoculation): 2352 mm^3
- Mean Tumor Size (B16F10 melanoma; Day 32 post-tumor inoculation, listed as avelumab): 2352±264 mm^3
